# Test results published in PubChem BioAssay (NCI).
#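 Five concentrations, 48 hours, 96-well plates. Here, GI50 denotes the concentration required for 50% inhibition of growth. TGI is the concentration that stops growth completely.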
# Assays:
# Experiment in all cases: growth of human tumour cells (NCI), 48 h
# ACHN renal = system: ACHN renal
# UACC-257 melanoma = system: UACC-257 melanoma
# HT29 colon = system: HT29 colon
# UO-31 renal = system: UO-31 renal
# HCC-2998 colon = system: HCC-2998 colon
# NCI-H226 lung = system: NCI-H226 lung
# T-47D breast = system: T-47D breast
# MOLT-4 leukemia = system: MOLT-4 leukemia
# DU-145 prostate = system: DU-145 prostate
# HCT-116 colon = system: HCT-116 colon
Compound,GI50 (ACHN renal),TGI (ACHN renal),GI50 (UACC-257 melanoma),TGI (UACC-257 melanoma),GI50 (HT29 colon),TGI (HT29 colon),GI50 (UO-31 renal),TGI (UO-31 renal),GI50 (HCC-2998 colon),TGI (HCC-2998 colon),GI50 (NCI-H226 lung),TGI (NCI-H226 lung),GI50 (T-47D breast),TGI (T-47D breast),GI50 (MOLT-4 leukemia),TGI (MOLT-4 leukemia),GI50 (DU-145 prostate),TGI (DU-145 prostate),GI50 (HCT-116 colon),TGI (HCT-116 colon)
Cc1ccc(C)c2c1C(O)(C#Cc1ccccc1)c1ccccc1C2(O)C#Cc1ccccc1 (configuration not stated),2.84 µM,> 100 µM,2.54 µM,6.6 µM,2.96 µM,> 100 µM,1.89 µM,6.83 µM,5.56 µM,> 100 µM,1.9 µM,9.46 µM,2 µM,> 27.5 µM,2.5 µM,> 23.3 µM,3.32 µM,> 100 µM,3.04 µM,> 100 µM
COc1cc(NC(N)=NCCC(C)(C)Oc2ccc(C(F)(F)F)cc2)ncc1C#N,1.7 µM,3.06 µM,1.7 µM,3.11 µM,1.64 µM,3.03 µM,1.48 µM,2.85 µM,1.58 µM,3.01 µM,–,–,1.56 µM,3.29 µM,–,–,1.72 µM,3.12 µM,1.46 µM,2.83 µM
CC(C)=CCc1c(OC(=O)c2c(C)cc(O)cc2O)cc(CO)c(CO)c1O,–,37.2 µM,–,> 100 µM,–,42.6 µM,–,34.4 µM,–,31.7 µM,–,> 100 µM,–,23.8 µM,–,63 µM,–,70.4 µM,–,43.9 µM
COc1cc(C#Cc2ccc(=O)oc2C#Cc2ccccc2)cc(OC)c1OC,2.13 µM,4.23 µM,6.81 µM,15.6 µM,2.44 µM,6.6 µM,1.51 µM,3.04 µM,2.6 µM,9.87 µM,2.59 µM,7.41 µM,2.27 µM,6.22 µM,3.43 µM,> 45.1 µM,3.12 µM,10.7 µM,2.04 µM,4.57 µM
COc1cc(/C=C2\C(=O)Nc3cc(C)c(O)cc32)cc(OC)c1OC,8.27 µM,24.6 µM,13.5 µM,42.7 µM,4.01 µM,> 39.6 µM,4.94 µM,41.6 µM,5.18 µM,17.5 µM,15.6 µM,46.5 µM,3.93 µM,37.9 µM,3.32 µM,16.7 µM,3.67 µM,17.1 µM,4.07 µM,15.8 µM
CCCC(=O)NC1=C(Cl)C(=O)c2ccccc2C1=O,–,3.83 µM,–,14 µM,–,27.7 µM,–,8.99 µM,–,16.3 µM,–,29.9 µM,–,8.02 µM,–,7.2 µM,–,20.9 µM,–,4.52 µM
CCOC(=O)c1sc(-c2ccc(OS(=O)(=O)c3ccc(Br)s3)c(C=O)c2)nc1C,3.02 µM,9.05 µM,18.6 µM,64.7 µM,2.45 µM,6.43 µM,2.63 µM,9.76 µM,13.3 µM,29.3 µM,3.82 µM,23.1 µM,2.77 µM,12.1 µM,2.73 µM,8.3 µM,6.81 µM,24.8 µM,1.89 µM,3.95 µM
Cn1cc(C2=C(c3cn(CCCCN)c4ccccc34)C(=O)NC2=O)c2ccccc21,> 25 µM,> 25 µM,> 25 µM,> 25 µM,> 25 µM,> 25 µM,> 25 µM,> 25 µM,> 25 µM,> 25 µM,> 25 µM,> 25 µM,> 25 µM,> 25 µM,> 25 µM,> 25 µM,> 25 µM,> 25 µM,> 25 µM,> 25 µM
CCC[CH2][Sn]([CH2]CCC)([CH2]CCC)[O]c1ccc(Cl)cc1Cl,0.155 µM,0.291 µM,0.154 µM,0.305 µM,0.118 µM,0.293 µM,0.0572 µM,0.203 µM,0.0949 µM,0.226 µM,–,–,0.128 µM,0.307 µM,0.165 µM,2.77 µM,0.13 µM,0.271 µM,0.0952 µM,0.231 µM
Cc1ccc(-c2csc(/N=C3\C(=O)Nc4ccccc43)n2)cc1,2.62 µM,14.2 µM,–,–,1.6 µM,4.83 µM,1.96 µM,22.4 µM,1.6 µM,3.21 µM,1.78 µM,3.71 µM,1.36 µM,4.46 µM,–,–,2.16 µM,5.99 µM,1.35 µM,2.79 µM
COc1cc(-c2cc3ncccc3c3nc(N)c4cccnc4c23)cc(OC)c1OC,0.769 µM,19.1 µM,2.08 µM,44.7 µM,0.0762 µM,15.5 µM,0.936 µM,59.8 µM,1.66 µM,> 100 µM,16.8 µM,> 100 µM,0.824 µM,32 µM,0.604 µM,8.05 µM,0.487 µM,3.13 µM,–,–
C=C(C)C(=O)O[C@H]1C[C@@]23O[C@@H]2CCC(=C[C@H]2OC(=O)C(=C)[C@H]12)COC3O (some centres not stated),–,> 100 µM,–,> 100 µM,–,> 100 µM,–,–,–,> 100 µM,–,> 100 µM,–,> 100 µM,–,92.2 µM,–,> 100 µM,–,37.5 µM
